# Measurements: ChEMBL document CHEMBL3885881, “DrugMatrix”
# Species: Rattus norvegicus
# Experiment: DrugMatrix - Regimen: Daily Repeat
# Assay type: toxicity, organism-based, Sprague-Dawley
# Set-up: regimen Daily Repeat, gender Male, age 6-8 weeks
# Conditions: in vivo, iv, […], vehicle 100 % SALINE; for MONOCYTE / NEUTROPHIL / NUCLEATED RED BLOOD CELLS / ABSOLUTE BASOPHIL / ABSOLUTE EOSINOPHIL / ABSOLUTE LYMPHOCYTE / ABSOLUTE MONOCYTE / ABSOLUTE SEGMENTED NEUTROPHIL / BASOPHIL / EOSINOPHIL / ERYTHROCYTE COUNT / HEMATOCRIT / HEMOGLOBIN / LEUKOCYTE COUNT / LYMPHOCYTE / MEAN CORPUSCULAR HEMOGLOBIN / MEAN CORPUSCULAR HEMOGLOBIN CONCENTRATION / MEAN CORPUSCULAR VOLUME: tissue Blood; for ALANINE AMINOTRANSFERASE / ALKALINE PHOSPHATASE / ASPARTATE AMINOTRANSFERASE / BLOOD UREA NITROGEN / CARBON DIOXIDE / CHOLESTEROL / CREATINE PHOSPHOKINASE / CREATININE / GLUCOSE / LACTATE DEHYDROGENASE / LIPASE / SODIUM / TOTAL BILIRUBIN / TOTAL PROTEIN / URIC ACID: tissue Plasma
# [1] = 72 h, dose 2.7 mg/Kg, dose level High, time 3 day
# [2] = 72 h, dose 0.27 mg/Kg, dose level Low, time 3 day
# [3] = 120 h, dose 0.27 mg/Kg, dose level Low, time 5 day
# [4] = 120 h, dose 2.7 mg/Kg, dose level High, time 5 day
smiles,measurement,setting,value
COc1cccc2c1C(=O)c1c(O)c3c(c(O)c1C2=O)C[C@@](O)(C(=O)CO)C[C@@H]3O[C@H]1C[C@H](N)[C@@H](O)[C@H](C)O1 [EPIRUBICIN],MONOCYTE,[1],0.67%
same,NEUTROPHIL,[1],8.67%
same,NUCLEATED RED BLOOD CELLS,[1],0 /100WBC
same,ALANINE AMINOTRANSFERASE,[2],37 u/L
same,ALKALINE PHOSPHATASE,[2],440.33 u/L
same,ASPARTATE AMINOTRANSFERASE,[2],76.33 u/L
same,BLOOD UREA NITROGEN,[2],17 mg/dL
same,CARBON DIOXIDE,[2],25 mmol/L
same,CHOLESTEROL,[2],79.67 mg/dL
same,CREATINE PHOSPHOKINASE,[2],317.67 u/L
same,CREATININE,[2],0.15 mg/dL
same,GLUCOSE,[2],161.33 mg/dL
same,LACTATE DEHYDROGENASE,[2],433 u/L
same,LIPASE,[2],9.33 u/L
same,SODIUM,[2],143.3 MEQ/L
same,TOTAL BILIRUBIN,[2],0.2 mg/dL
same,TOTAL PROTEIN,[2],5.67 G/DL
same,URIC ACID,[2],1.5 mg/dL
same,ALANINE AMINOTRANSFERASE,[1],33 u/L
same,ALKALINE PHOSPHATASE,[1],297.33 u/L
same,ASPARTATE AMINOTRANSFERASE,[1],83.67 u/L
same,BLOOD UREA NITROGEN,[1],13 mg/dL
same,CARBON DIOXIDE,[1],26.33 mmol/L
same,CHOLESTEROL,[1],96.33 mg/dL
same,CREATINE PHOSPHOKINASE,[1],442.33 u/L
same,CREATININE,[1],0.12 mg/dL
same,GLUCOSE,[1],146.33 mg/dL
same,LACTATE DEHYDROGENASE,[1],682.67 u/L
same,LIPASE,[1],10 u/L
same,SODIUM,[1],143.33 MEQ/L
same,TOTAL BILIRUBIN,[1],0.0667 mg/dL
same,TOTAL PROTEIN,[1],5.73 G/DL
same,URIC ACID,[1],1.43 mg/dL
same,ABSOLUTE BASOPHIL,[3],0 CELLS/uL
same,ABSOLUTE EOSINOPHIL,[3],0 CELLS/uL
same,ABSOLUTE LYMPHOCYTE,[3],12433.67 CELLS/uL
same,ABSOLUTE MONOCYTE,[3],229 CELLS/uL
same,ABSOLUTE SEGMENTED NEUTROPHIL,[3],504 CELLS/uL
same,BASOPHIL,[3],0%
same,EOSINOPHIL,[3],0%
same,ERYTHROCYTE COUNT,[3],5.91 x10E6/uL
same,HEMATOCRIT,[3],37.27%
same,HEMOGLOBIN,[3],14.33 G/DL
same,LEUKOCYTE COUNT,[3],13.17 x10E3/uL
same,LYMPHOCYTE,[3],94.33%
same,MEAN CORPUSCULAR HEMOGLOBIN,[3],24.27 pg
same,MEAN CORPUSCULAR HEMOGLOBIN CONCENTRATION,[3],38.5 G/DL
same,MEAN CORPUSCULAR VOLUME,[3],63.07 fL
same,MONOCYTE,[3],1.67%
same,NEUTROPHIL,[3],4%
same,NUCLEATED RED BLOOD CELLS,[3],0 /100WBC
same,ABSOLUTE BASOPHIL,[4],0 CELLS/uL
same,ABSOLUTE EOSINOPHIL,[4],0 CELLS/uL
same,ABSOLUTE LYMPHOCYTE,[4],1316 CELLS/uL
same,ABSOLUTE MONOCYTE,[4],12 CELLS/uL
same,ABSOLUTE SEGMENTED NEUTROPHIL,[4],72 CELLS/uL
same,BASOPHIL,[4],0%
same,EOSINOPHIL,[4],0%
same,ERYTHROCYTE COUNT,[4],6.07 x10E6/uL
same,HEMATOCRIT,[4],37.4%
same,HEMOGLOBIN,[4],15.17 G/DL
same,LEUKOCYTE COUNT,[4],1.4 x10E3/uL
same,LYMPHOCYTE,[4],94%
same,MEAN CORPUSCULAR HEMOGLOBIN,[4],25.13 pg
same,MEAN CORPUSCULAR HEMOGLOBIN CONCENTRATION,[4],40.6 G/DL
same,MEAN CORPUSCULAR VOLUME,[4],61.83 fL
same,MONOCYTE,[4],1%
same,NEUTROPHIL,[4],5%
same,NUCLEATED RED BLOOD CELLS,[4],0 /100WBC
same,ALANINE AMINOTRANSFERASE,[3],57.67 u/L
same,ALKALINE PHOSPHATASE,[3],390.33 u/L
same,ASPARTATE AMINOTRANSFERASE,[3],107.33 u/L
same,BLOOD UREA NITROGEN,[3],16.67 mg/dL
same,CARBON DIOXIDE,[3],25 mmol/L
same,CHOLESTEROL,[3],75 mg/dL
same,CREATINE PHOSPHOKINASE,[3],510.67 u/L
same,CREATININE,[3],0.16 mg/dL
same,GLUCOSE,[3],152 mg/dL
same,LACTATE DEHYDROGENASE,[3],825.67 u/L
same,LIPASE,[3],9 u/L
same,SODIUM,[3],144.37 MEQ/L
same,TOTAL BILIRUBIN,[3],0.17 mg/dL
same,TOTAL PROTEIN,[3],5.9 G/DL
same,URIC ACID,[3],1.63 mg/dL
same,ALANINE AMINOTRANSFERASE,[4],29 u/L
same,ALKALINE PHOSPHATASE,[4],172 u/L
same,ASPARTATE AMINOTRANSFERASE,[4],79.33 u/L
same,BLOOD UREA NITROGEN,[4],20.67 mg/dL
same,CARBON DIOXIDE,[4],28 mmol/L
same,CHOLESTEROL,[4],93 mg/dL
same,CREATINE PHOSPHOKINASE,[4],725.67 u/L
same,CREATININE,[4],0.12 mg/dL
same,GLUCOSE,[4],151.33 mg/dL
same,LACTATE DEHYDROGENASE,[4],374.33 u/L
same,LIPASE,[4],8.67 u/L
same,SODIUM,[4],141.7 MEQ/L
same,TOTAL BILIRUBIN,[4],0.0667 mg/dL
same,TOTAL PROTEIN,[4],5.67 G/DL
same,URIC ACID,[4],1.37 mg/dL
